# According to patent EP4725956A1, “MODIFIED POLYPEPTIDE AND USE THEREOF IN FIELD OF ANALGESIA” (Nanjing Anji Biotechnology Co., Ltd., priority 2023, dated 2024):
# Positions of bridges follow the written chain, without caps; N, C: chain ends. Non-standard residues stand in square brackets, D forms with d. Residues, ends and D or L forms follow the SMILES beside them. Bip = N[C@@H](Cc1ccc(-c2ccccc2)cc1)C(=O)O; Hyp = O=C(O)[C@@H]1C[C@@H](O)CN1; Nle = CCCC[C@H](N)C(=O)O; Orn = NCCC[C@H](N)C(=O)O; Aib = CC(C)(N)C(=O)O
# What was measured:
# [1] = In vitro plasma stability and predicted half-life (HPLC main peak area, Example 3); format: in vitro ADME; details: human plasma (EDTA anticoagulant), 37°C, sampled up to 24 h, predicted half-life calculated with Winolin
# Outline: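 Peptides (10 mg in 5 mL human EDTA plasma) incubated at 37°C, sampled from 0 min up to 24 h. Samples quenched with acetonitrile, centrifuged and analysed by HPLC for main peak area; in vitro half-life predicted from peak-area decline by pharmacokinetic fitting.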
# [2] = tested on: mouse oxaliplatin-induced acute chemotherapy pain model; experiment: Mouse oxaliplatin chemotherapy pain model, different doses (Example 7); format: in vivo
# Description: Oxaliplatin was dissolved in 5% glucose solution to a concentration of 1 mg/mL. For model induction, each male C57 mouse (Hangzhou Ziyuan Experimental Animal Technology Co., Ltd.) received a single intraperitoneal injection of oxaliplatin at 10 mg/kg. Mice in the negative control or blank control group received 5% glucose solution. Approximately one week after model induction, mechanical pain thresholds of the mice were measured three times per mouse, and the average value was calculated. Mice were then randomly assigned to groups based on their pain thresholds. Drug administration was carried out according to the dosing schedule shown in Table 6, with a single dose per mouse. Mechanical pain thresholds were measured at 0.5, 1, 2, 4, 6, and 8 h post-dose. […] Table 6 Dosing Scheme for Oxaliplatin Chemotherapy Pain Model
# [3] = tested on: rat CCI model; experiment: Rat CCI (chronic constriction injury) model (Example 9); format: in vivo
# From the text: Neuropathic pain has many types, and animal models can simulate clinical neuropathic pain. Common SD rat sciatic nerve neuropathic pain models include CCI (Chronic Constriction Injury), SNI (Spared Nerve Injury), SNL (Spinal Nerve Ligation), and CCD (using stainless steel wire through the intervertebral foramen to fix and compress the dorsal root ganglion). Among them, the CCI model is widely used to study neuropathic pain, providing a basis for further research on mechanisms and strategies for nerve injury repair (Wen Xiaojun, Medical Information, Jan. 2018, Vol. 31, No.1). In this example, the CCI model was employed.
# Except for the control group, the remaining SD rats were anesthetized via intraperitoneal injection of 10% chloral hydrate saline solution at a dose of 0.3 mL per 100 g body weight, and surgical modeling was performed. The right hind limb skin was carefully incised, muscles were separated, and the sciatic nerve was ligated three times using 4-0 surgical silk, spaced 1 mm apart. Muscles and skin were sutured, and antibiotics were applied to the wound to prevent infection. […] Approximately 10 days post-surgery, plantar pain thresholds were measured three times for each rat, and the average value was calculated. Rats were randomly assigned to groups based on pain thresholds. Drug administration was performed according to Table 8, and plantar pain thresholds were measured at 2 h, 4 h, 6 h, and 8 h after administration.
structure (smiles),measurement,setting,value
"CCCC[C@H](NC(=O)[C@@H](NC(=O)[C@H]1CSSC[C@H](NC(=O)[C@H](CO)NC(=O)CN)C(=O)N[C@@H](CO)C(=O)N[C@H]([C@H](C)O)C(=O)N2C[C@H](O)C[C@H]2C(=O)N2C[C@H](O)C[C@H]2C(=O)NC(C)(C)C(=O)N1)C(C)C)C(=O)N[C@@H](Cc1ccc(-c2ccccc2)cc1)C(=O)N[C@@H](CCCN)C(N)=O [AJ003-36, GSCS-(D-Thr)-Hyp-Hyp-Aib-(D-Cys)-V-Nle-Bip-Orn-NH2 (3,9 disulfide bond)] (H-GSCS[dT][Hyp][Hyp][Aib][dC]V[Nle][Bip][Orn]-NH2; disulfide 3-9)",half-life at 2 mg/mL,[1],65.3 h
same,analgesic activity compared with the model group (mechanical pain threshold),"[2]; single dose, 0.5, 1, 2 and 4 h post-dose, 1 mg/kg s.c. (low dose)",significant analgesic activity
same,analgesic activity compared with the model group (mechanical pain threshold),"[2]; single dose, 0.5, 1, 2 and 4 h post-dose, 2 mg/kg s.c. (AJ003; AJ003-36 medium dose)",significant analgesic activity
same,analgesic activity compared with the model group (mechanical pain threshold),"[2]; single dose, 0.5, 1, 2 and 4 h post-dose, 3 mg/kg s.c. (high dose)",significant analgesic activity
same,analgesic activity compared with the model group (mechanical pain threshold),"[2]; single dose, 6 h post-dose, 1 mg/kg s.c. (low dose)",significant analgesic activity
same,analgesic activity compared with the model group (mechanical pain threshold),"[2]; single dose, 6 h post-dose, 2 mg/kg s.c. (AJ003; AJ003-36 medium dose)",significant analgesic activity
same,analgesic activity compared with the model group (mechanical pain threshold),"[2]; single dose, 6 h post-dose, 3 mg/kg s.c. (high dose)",significant analgesic activity
same,analgesic activity compared with the model group (mechanical pain threshold),"[2]; single dose, 8 h post-dose, 1 mg/kg s.c. (low dose)",no significant effect
same,analgesic activity compared with the model group (mechanical pain threshold),"[2]; single dose, 8 h post-dose, 2 mg/kg s.c. (AJ003; AJ003-36 medium dose)",significant analgesic activity
same,analgesic activity compared with the model group (mechanical pain threshold),"[2]; single dose, 8 h post-dose, 3 mg/kg s.c. (high dose)",significant analgesic activity
same,analgesic activity compared with the model group (mechanical pain threshold),"[3]; Day 1 of dosing, 2 h and 4 h, 0.5 mg/kg s.c. (low dose)",significant analgesic activity
same,analgesic activity compared with the model group (mechanical pain threshold),"[3]; Day 1 of dosing, 2 h and 4 h, 1 mg/kg s.c. (AJ003; AJ003-36 medium dose)",significant analgesic activity
same,analgesic activity compared with the model group (mechanical pain threshold),"[3]; Day 1 of dosing, 2 h and 4 h, 2 mg/kg s.c. (high dose)",significant analgesic activity
same,analgesic activity compared with the model group (mechanical pain threshold),"[3]; Day 1 of dosing, 6 h, 0.5 mg/kg s.c. (low dose)",significant analgesic activity
same,analgesic activity compared with the model group (mechanical pain threshold),"[3]; Day 1 of dosing, 6 h, 1 mg/kg s.c. (AJ003; AJ003-36 medium dose)",significant analgesic activity
same,analgesic activity compared with the model group (mechanical pain threshold),"[3]; Day 1 of dosing, 6 h, 2 mg/kg s.c. (high dose)",significant analgesic activity
same,analgesic activity compared with the model group (mechanical pain threshold),"[3]; Day 1 of dosing, 8 h, 0.5 mg/kg s.c. (low dose)",not significantly different
same,analgesic activity compared with the model group (mechanical pain threshold),"[3]; Day 1 of dosing, 8 h, 1 mg/kg s.c. (AJ003; AJ003-36 medium dose)",significant analgesic activity
same,analgesic activity compared with the model group (mechanical pain threshold),"[3]; Day 1 of dosing, 8 h, 2 mg/kg s.c. (high dose)",significant analgesic activity
same,analgesic activity compared with the model group (mechanical pain threshold),"[3]; Day 4 of dosing, 2 h and 4 h, 0.5 mg/kg s.c. (low dose)",significant analgesic activity
same,analgesic activity compared with the model group (mechanical pain threshold),"[3]; Day 4 of dosing, 2 h and 4 h, 1 mg/kg s.c. (AJ003; AJ003-36 medium dose)",significant analgesic activity
same,analgesic activity compared with the model group (mechanical pain threshold),"[3]; Day 4 of dosing, 2 h and 4 h, 2 mg/kg s.c. (high dose)",significant analgesic activity
same,analgesic activity compared with the model group (mechanical pain threshold),"[3]; Day 4 of dosing, 6 h and 8 h, 0.5 mg/kg s.c. (low dose)",no longer significant
same,analgesic activity compared with the model group (mechanical pain threshold),"[3]; Day 4 of dosing, 6 h and 8 h, 1 mg/kg s.c. (AJ003; AJ003-36 medium dose)",remained significant
same,analgesic activity compared with the model group (mechanical pain threshold),"[3]; Day 4 of dosing, 6 h and 8 h, 2 mg/kg s.c. (high dose)",remained significant
same,analgesic activity compared with the model group (mechanical pain threshold),"[3]; Day 7 of dosing, 2 h and 4 h, 0.5 mg/kg s.c. (low dose)",significant analgesic activity
same,analgesic activity compared with the model group (mechanical pain threshold),"[3]; Day 7 of dosing, 2 h and 4 h, 1 mg/kg s.c. (AJ003; AJ003-36 medium dose)",significant analgesic activity
same,analgesic activity compared with the model group (mechanical pain threshold),"[3]; Day 7 of dosing, 2 h and 4 h, 2 mg/kg s.c. (high dose)",significant analgesic activity
same,analgesic activity compared with the model group (mechanical pain threshold),"[3]; Day 7 of dosing, 6 h, 0.5 mg/kg s.c. (low dose)",still significant
same,analgesic activity compared with the model group (mechanical pain threshold),"[3]; Day 7 of dosing, 6 h, 1 mg/kg s.c. (AJ003; AJ003-36 medium dose)",still significant
same,analgesic activity compared with the model group (mechanical pain threshold),"[3]; Day 7 of dosing, 6 h, 2 mg/kg s.c. (high dose)",still significant
same,analgesic activity compared with the model group (mechanical pain threshold),"[3]; Day 7 of dosing, 8 h, 0.5 mg/kg s.c. (low dose)",not significant
same,analgesic activity compared with the model group (mechanical pain threshold),"[3]; Day 7 of dosing, 8 h, 1 mg/kg s.c. (AJ003; AJ003-36 medium dose)",remained significant
same,analgesic activity compared with the model group (mechanical pain threshold),"[3]; Day 7 of dosing, 8 h, 2 mg/kg s.c. (high dose)",remained significant
same,analgesic activity compared with the model group (mechanical pain threshold),"[3]; Day 10 of dosing, 2 h and 4 h, 0.5 mg/kg s.c. (low dose)",significant analgesic activity
same,analgesic activity compared with the model group (mechanical pain threshold),"[3]; Day 10 of dosing, 2 h and 4 h, 1 mg/kg s.c. (AJ003; AJ003-36 medium dose)",significant analgesic activity
same,analgesic activity compared with the model group (mechanical pain threshold),"[3]; Day 10 of dosing, 2 h and 4 h, 2 mg/kg s.c. (high dose)",significant analgesic activity
same,analgesic activity compared with the model group (mechanical pain threshold),"[3]; Day 10 of dosing, 6 h, 0.5 mg/kg s.c. (low dose)",remained significant
same,analgesic activity compared with the model group (mechanical pain threshold),"[3]; Day 10 of dosing, 6 h, 1 mg/kg s.c. (AJ003; AJ003-36 medium dose)",remained significant
same,analgesic activity compared with the model group (mechanical pain threshold),"[3]; Day 10 of dosing, 6 h, 2 mg/kg s.c. (high dose)",remained significant
same,analgesic activity compared with the model group (mechanical pain threshold),"[3]; Day 10 of dosing, 8 h, 0.5 mg/kg s.c. (low dose)",not significant
same,analgesic activity compared with the model group (mechanical pain threshold),"[3]; Day 10 of dosing, 8 h, 1 mg/kg s.c. (AJ003; AJ003-36 medium dose)",remained significant
same,analgesic activity compared with the model group (mechanical pain threshold),"[3]; Day 10 of dosing, 8 h, 2 mg/kg s.c. (high dose)",remained significant
same,analgesic activity compared with the model group (mechanical pain threshold),"[3]; Day 14 of dosing, 2 h and 4 h, 0.5 mg/kg s.c. (low dose)",significant analgesic activity
same,analgesic activity compared with the model group (mechanical pain threshold),"[3]; Day 14 of dosing, 2 h and 4 h, 1 mg/kg s.c. (AJ003; AJ003-36 medium dose)",significant analgesic activity
same,analgesic activity compared with the model group (mechanical pain threshold),"[3]; Day 14 of dosing, 2 h and 4 h, 2 mg/kg s.c. (high dose)",significant analgesic activity
same,analgesic activity compared with the model group (mechanical pain threshold),"[3]; Day 14 of dosing, 6 h, 0.5 mg/kg s.c. (low dose)",remained significant
same,analgesic activity compared with the model group (mechanical pain threshold),"[3]; Day 14 of dosing, 6 h, 1 mg/kg s.c. (AJ003; AJ003-36 medium dose)",remained significant
same,analgesic activity compared with the model group (mechanical pain threshold),"[3]; Day 14 of dosing, 6 h, 2 mg/kg s.c. (high dose)",remained significant
same,analgesic activity compared with the model group (mechanical pain threshold),"[3]; Day 14 of dosing, 8 h, 0.5 mg/kg s.c. (low dose)",not significant
same,analgesic activity compared with the model group (mechanical pain threshold),"[3]; Day 14 of dosing, 8 h, 1 mg/kg s.c. (AJ003; AJ003-36 medium dose)",remained significant
same,analgesic activity compared with the model group (mechanical pain threshold),"[3]; Day 14 of dosing, 8 h, 2 mg/kg s.c. (high dose)",remained significant
